Results from US12360111B2, “G protein-coupled receptor screening systems” (The University of North Carolina at Chapel Hill, priority 2018, dated 2025).
“Also recorded” adds a separate entry of the source. Where two headings read alike, the source gives them in different places.

Tests used:
HEK293 cells = test: Calcium release in HEK293 cells without serotonin receptors; format: cell-based; conditions: cells do not express serotonin (5-HT) receptors
[1] = tested on: 5-HT5A receptor fused to Gi, Gq or Gs; test: [35S]GTPγS loading at 5-HT5A receptor-Gα fusions; format: biochemical; conditions: Gi vs Gq vs Gs fusions
[2] = tested on: serotonin-5A receptor (HTR5A)-Gαi1 RLuc fusion; test: Fusion BRET at HTR5A-Gαi1 RLuc; format: cell-based
[3] = tested on: mu-opioid receptor fused to Gαi1-RLuc8 chimera (MOR-Gi1RLuc); conditions: for binding to and GPPNHP elution from membranes (in words): unfused MOR vs MOR-Gαi1 membranes
[4] = tested on: Gα proteins fused to the μ-opioid receptor (MOR); test: Competition radioligand binding at six Gα proteins fused to MOR
[5] = biological target: T1, KOR, Gαi/o-class TRUPATH sensors (Homo sapiens, UniProt P41145); format: cell-based
T1 construct: expressed in transfected cells
T1 sequence (P41145 whole entry): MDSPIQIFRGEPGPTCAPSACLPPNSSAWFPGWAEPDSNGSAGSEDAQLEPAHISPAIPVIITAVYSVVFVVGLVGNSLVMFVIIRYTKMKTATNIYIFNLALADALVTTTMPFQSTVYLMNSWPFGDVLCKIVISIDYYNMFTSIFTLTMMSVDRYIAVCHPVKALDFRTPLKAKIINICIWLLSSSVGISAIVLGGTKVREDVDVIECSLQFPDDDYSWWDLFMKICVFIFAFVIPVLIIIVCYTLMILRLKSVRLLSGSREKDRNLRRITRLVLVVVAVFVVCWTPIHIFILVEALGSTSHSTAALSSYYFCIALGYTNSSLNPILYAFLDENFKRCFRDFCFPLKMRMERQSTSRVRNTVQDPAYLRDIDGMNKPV

[6] = biological target: T2, μ-opioid receptor (MOR) fused to Gαi1 protein (MOR-Gi1) (Homo sapiens, UniProt P35372+P63096); test: ADSoRB screen with radiolabeled agonist tracer at MOR-Gi1 microsomes; format: binding
T2 construct: expressed in transfected cells; host or cells: HEK293 suspension cells, microsomal membranes
T2 sequence (P35372+P63096 fused): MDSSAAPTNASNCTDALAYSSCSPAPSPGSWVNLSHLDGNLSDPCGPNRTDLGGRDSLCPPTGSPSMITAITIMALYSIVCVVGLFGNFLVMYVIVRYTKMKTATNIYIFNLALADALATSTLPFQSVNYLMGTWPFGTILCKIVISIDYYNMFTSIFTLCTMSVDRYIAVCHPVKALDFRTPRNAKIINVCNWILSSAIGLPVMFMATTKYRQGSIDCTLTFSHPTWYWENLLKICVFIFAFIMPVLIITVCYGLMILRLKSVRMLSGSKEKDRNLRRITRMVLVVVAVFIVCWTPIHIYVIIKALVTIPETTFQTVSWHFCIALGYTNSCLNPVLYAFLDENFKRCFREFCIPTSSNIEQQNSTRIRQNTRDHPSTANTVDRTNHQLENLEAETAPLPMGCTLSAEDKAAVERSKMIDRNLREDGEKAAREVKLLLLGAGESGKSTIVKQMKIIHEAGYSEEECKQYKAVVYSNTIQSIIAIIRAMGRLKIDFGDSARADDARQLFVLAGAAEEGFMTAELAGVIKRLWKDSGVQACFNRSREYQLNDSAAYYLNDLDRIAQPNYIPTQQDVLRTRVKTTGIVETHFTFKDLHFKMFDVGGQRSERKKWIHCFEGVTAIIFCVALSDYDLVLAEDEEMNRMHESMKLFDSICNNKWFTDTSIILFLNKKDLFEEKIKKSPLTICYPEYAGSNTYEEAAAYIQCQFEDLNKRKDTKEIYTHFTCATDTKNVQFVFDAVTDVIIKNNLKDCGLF

[7] = biological target: T3, mu-opioid receptor unfused (MOR) (Homo sapiens, UniProt P35372); format: binding
T3 construct: expressed in transfected cells
T3 sequence (P35372 whole entry, the tested form may be a part): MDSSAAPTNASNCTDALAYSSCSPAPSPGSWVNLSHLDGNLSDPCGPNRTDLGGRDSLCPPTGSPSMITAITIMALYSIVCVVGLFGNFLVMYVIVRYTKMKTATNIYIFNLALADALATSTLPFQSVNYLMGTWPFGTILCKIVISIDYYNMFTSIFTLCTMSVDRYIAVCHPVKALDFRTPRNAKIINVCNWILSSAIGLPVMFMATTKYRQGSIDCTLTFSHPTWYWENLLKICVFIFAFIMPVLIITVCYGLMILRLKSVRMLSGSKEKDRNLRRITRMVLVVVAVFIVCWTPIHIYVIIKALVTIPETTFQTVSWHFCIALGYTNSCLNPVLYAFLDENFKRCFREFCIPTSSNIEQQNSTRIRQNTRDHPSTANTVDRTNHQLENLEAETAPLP

μ-opioid receptor (MOR) = biological target: T4, μ-opioid receptor (MOR) (Homo sapiens, UniProt P35372); test: TRUPATH after alkylation of MOR with β-FNA (receptor reserve); format: cell-based; conditions: increasing β-FNA treatment
T4 construct: expressed in transfected cells
T4 sequence (P35372 whole entry): as the sequence (P35372 whole entry, the tested form may be a part) above

## NCCc1c[nH]c2ccc(O)cc12 [5-HT]
HEK293 cells
  calcium release (in words): do not cause calcium release
[1]
  G protein activation ([35S]GTPγS loading, in words): only seen at the Gi fusion
[2]
  BRET response (in words): reliable and substantial serotonin response

## C[C@@H](NC(=O)[C@@H](N)Cc1ccc(O)cc1)C(=O)NCC(=O)N(C)[C@@H](Cc1ccccc1)C(=O)NCCO [DAMGO]
[3]
  binding to and GPPNHP elution from membranes (in words): ability to bind and elute
[4]
  affinity shift vs unfused MOR (in words): shift compared to unfused MOR

## COc1cc(CC(C)N)c(OC)cc1I (centres unmarked) [DOI]
HEK293 cells
  calcium release (in words): do not cause calcium release

## COC(=O)N1CCN(C(=O)Cc2ccc(Cl)c(Cl)c2)C(CN2CCCC2)C1 (centres unmarked) [GR89,696]
[5]
  efficacy across transducers (in words): activated all transducers with equal efficacy

## CCN(CC)C(=O)N[C@H]1C=C2c3cccc4[nH]cc(c34)C[C@H]2N(C)C1 [Lisuride]
HEK293 cells
  calcium release (in words): do not cause calcium release

## O=C(c1ccccn1)N(Cc1cccs1)C1(C(=O)NC2CCCCC2)CCCCC1 [ML139]
[5]
  efficacy across transducers (in words): activated all transducers with equal efficacy

## COc1ccsc1CNCC[C@@]1(c2ccccn2)CCOC2(CCCC2)C1 [TRV130]
[4]
  affinity shift vs unfused MOR (in words): shift compared to unfused MOR

## C[C@@H](NC(=O)[C@@H](N)Cc1ccc(O)cc1)C(=O)NCC(=O)N(C)[C@@H](Cc1ccccc1)C(=O)NCCO [[3H]DAMGO]
[6]; GPPNHP elution
  elution upon complex dissociation/uncoupling with GPPNHP: 30 % of total agonist added
[6]; buffer elution
  elution with buffer control: 2 % of total agonist added
[3]; MOR-Gi1RLuc complex
  unbound tracer: 23%
[3]; high affinity MOR-Gi1RLuc complex
  elution upon complex dissociation with GPPNHP: 7 % of total
[3]; listed as [^3H]DAMGO
  binding to and GPPNHP elution from membranes (in words): binds more strongly to the MOR-Gαi1 complex; also recorded: elutes to a greater extent
[7]
  elution upon complex dissociation with GPPNHP: 0.8 % of total
  unbound tracer: 67%

## COC(=O)/C=C/C(=O)N[C@@H]1CC[C@@]2(O)[C@H]3Cc4ccc(O)c5c4[C@@]2(CCN3CC2CC2)[C@H]1O5 [β-FNA]
μ-opioid receptor (MOR)
  effect on maximal efficacy (Emax): strong inhibition of maximal efficacy
  effect on potency: minimal effect on potency

## Leu-enkephalin
[4]
  affinity shift vs unfused MOR (in words): shift compared to unfused MOR
